Biological target: T1, HPK1 (Homo sapiens, UniProt Q92918)
T1 construct: A HiBiT tag was introduced by CRISPR on the N terminus of HPK1 in Jurkat cells; host or cells: Jurkat cells (ATCC TIB-152), monoclonal line with CRISPR knock-in of HiBiT at the endogenous HPK1 locus
Test: HPK1 Cellular HiBit Degradation Assay
Format: cell-based
Settings: HiBiT HPK1 Jurkat cells, 24 hrs; for DC50: concentration at which 50% of HPK1 was remaining, read-out: DC50 Category; for Dmax: Jurkat, read-out: Dmax Category
Method in brief: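 Jurkat cells with CRISPR knock-in N-terminal HiBiT-HPK1 were treated with CTMs (11-point, 3.16-fold, 10 uM to 0.1 nM final) for 24 hrs at 37° C. HiBiT lytic luminescence, with parental Jurkat as background and DMSO as 100%, gave % HPK1 remaining; four-parameter fit yielded DC50 and Dmax (100 minus lowest % remaining).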

[1] = maximum degradation vs DMSO vehicle control

T1 sequence (Q92918 whole entry): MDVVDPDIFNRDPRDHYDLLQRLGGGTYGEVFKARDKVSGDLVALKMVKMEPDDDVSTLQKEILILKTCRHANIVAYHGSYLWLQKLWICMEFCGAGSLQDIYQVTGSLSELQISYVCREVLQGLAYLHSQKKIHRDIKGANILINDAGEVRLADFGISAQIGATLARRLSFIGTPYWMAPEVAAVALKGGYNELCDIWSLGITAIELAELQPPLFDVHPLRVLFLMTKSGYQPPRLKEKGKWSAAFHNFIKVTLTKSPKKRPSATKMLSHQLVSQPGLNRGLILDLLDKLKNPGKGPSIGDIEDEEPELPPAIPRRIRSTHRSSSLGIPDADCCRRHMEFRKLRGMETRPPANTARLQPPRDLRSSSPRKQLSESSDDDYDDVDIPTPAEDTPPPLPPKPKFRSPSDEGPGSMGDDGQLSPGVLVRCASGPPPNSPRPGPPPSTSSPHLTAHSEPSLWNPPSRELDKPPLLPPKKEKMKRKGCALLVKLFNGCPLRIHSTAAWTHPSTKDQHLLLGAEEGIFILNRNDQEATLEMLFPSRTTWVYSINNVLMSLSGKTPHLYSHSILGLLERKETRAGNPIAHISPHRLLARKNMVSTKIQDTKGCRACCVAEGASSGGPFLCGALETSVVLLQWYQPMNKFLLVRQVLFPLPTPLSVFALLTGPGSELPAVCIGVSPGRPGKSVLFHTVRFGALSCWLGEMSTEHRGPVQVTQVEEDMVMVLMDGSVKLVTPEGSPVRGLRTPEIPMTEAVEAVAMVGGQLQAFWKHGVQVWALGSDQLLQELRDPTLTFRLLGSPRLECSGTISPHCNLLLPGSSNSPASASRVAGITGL

CC(C)n1cnc2cc(-c3ccc4c(c3)N([C@H]3C[C@@H](N5CCCCC5)C3)C(=O)C43CCN(C(=O)C4(C)CCN(C(=O)C5CCN(c6ccc(N7CCC(=O)NC7=O)cc6)CC5)CC4)CC3)nc(NC3CC3)c21 [Example 211, 1-(4-{4-[4-({6-[4-(cyclopropylamino)-3-(propan-2-yl)-3H-imidazo[4,5-c]pyridin-6-yl]-2-oxo-1-[(1S,3S)-3-(piperidin-1-yl)cyclobutyl]-1,2-dihydrospiro[indole-3,4′-piperidin]-1′-yl}carbonyl)-4-methylpiperidine-1-carbonyl]piperidin-1-yl}phenyl)-1,3-diazinane-2,4-dione]
DC50: < 100 nM
Dmax [1]: 70 to 85%

CC(C)n1cnc2cc(-c3ccc4c(c3)N([C@H]3C[C@@H](N5CCCCC5)C3)C(=O)C43CCN(C(=O)C4(C)CCN(C(=O)C5CCN(c6ccc([C@H]7CCC(=O)NC7=O)cn6)CC5)CC4)CC3)nc(NC3CC3)c21 [Example 213, (3R)-3-(6-{4-[4-({6-[4-(cyclopropylamino)-3-(propan-2-yl)-3H-imidazo[4,5-c]pyridin-6-yl]-2-oxo-1-[(1S,3S)-3-(piperidin-1-yl)cyclobutyl]-1,2-dihydrospiro[indole-3,4′-piperidin]-1′-yl}carbonyl)-4-methylpiperidine-1-carbonyl]piperidin-1-yl}pyridin-3-yl)piperidine-2,6-dione]
DC50: < 100 nM
Dmax Category [1]: B (B: >70%-<85%)

CC(C)n1cnc2cc(-c3ccc4c(c3)N([C@H]3C[C@@H](N5CCCCC5)C3)C(=O)C43CCN(C(=O)[C@@H]4CCN(C(=O)C5CCN(c6ccc(N7CCC(=O)NC7=O)cc6)CC5)C4)CC3)nc(NC3CC3)c21 [Example 233, 1-(4-{4-[(3R)-3-({6-[4-(cyclopropylamino)-3-(propan-2-yl)-3H-imidazo[4,5-c]pyridin-6-yl]-2-oxo-1-[(1S,3S)-3-(piperidin-1-yl)cyclobutyl]-1,2-dihydrospiro[indole-3,4′-piperidin]-1′-yl}carbonyl)pyrrolidine-1-carbonyl]piperidin-1-yl}phenyl)-1,3-diazinane-2,4-dione]
DC50: < 100 nM
Dmax [1]: 70 to 85%

CC(C)n1cnc2cc(-c3ccc4c(c3)N([C@H]3C[C@@H](N5CCCCC5)C3)C(=O)C43CCN(C(=O)C4[C@@H]5C[C@H]4CN(C(=O)[C@H]4CC[C@H](Oc6ccc(C7CCC(=O)NC7=O)cc6)CC4)C5)CC3)nc(NC3CC3)c21 (stereo partly drawn) [Example 238, 3-(4-(((1R,4R)-4-((1R,5S,6S)-6-(6-(4-(cyclopropylamino)-3-isopropyl-3H-imidazo[4,5-c]pyridin-6-yl)-2-oxo-1-((1S,3S)-3-(piperidin-1-yl)cyclobutyl)spiro[indoline-3,4′-piperidine]-1′-carbonyl)-3-azabicyclo[3.1.1]heptane-3-carbonyl)cyclohexyl)oxy)phenyl)piperidine-2,6-dione]
DC50: < 100 nM
Dmax [1]: > 85%

CC(C)n1cnc2cc(-c3ccc4c(c3)N([C@H]3C[C@@H](N5CCCCC5)C3)C(=O)C43CCN(C(=O)[C@H]4[C@@H]5C[C@H]4CN(C(=O)C4CCN(c6ccc(C7CCC(=O)NC7=O)cn6)CC4)C5)CC3)nc(NC3CC3)c21 (stereo partly drawn) [Example 239, 3-(6-(4-((1R,5S,6S)-6-(6-(4-(cyclopropylamino)-3-isopropyl-3H-imidazo[4,5-c]pyridin-6-yl)-2-oxo-1-((1S,3S)-3-(piperidin-1-yl)cyclobutyl)spiro[indoline-3,4′-piperidine]-1′-carbonyl)-3-Azabicyclo[3.1.1]heptane-3-carbonyl)piperidin-1-yl)pyridin-3-yl)piperidine-2,6-dione]
DC50: < 100 nM
Dmax [1]: 50 to 70%

Source: US12091426B2, “Bifunctional degraders of hematopoietic progenitor kinase and therapeutic uses thereof” (Nurix Therapeutics, Inc., priority 2021, dated 2024)
